Test results: publication PMC6934184, “Selective DNA-PKcs inhibition extends the therapeutic index of localized radiotherapy and chemotherapy” (The Journal of Clinical Investigation, 2019)

Target: T1, PRKCA (PKC alpha) (Homo sapiens, UniProt P17252)
T1 construct: purchased Thermo Fisher Scientific (Life Technologies) SelectScreen
Test: SelectScreen Z'LYTE
Format: biochemical
Summary of the method: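 NU5455 was profiled across the SelectScreen Broad panel of kinase activity and binding assays. Z'LYTE reactions such as CSF1R ran at apparent Km ATP, while the Adapta CAMK1 assay used ATP listed as 10. Values are given as percent.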

Compound `CN(C(=O)CN1CCOCC1)c1ccc2sc3c(-c4cccc5c(=O)cc(N6CC7CCC(C6)O7)oc45)cccc3c2c1` [NU5455] has an inhibition at 1 µM of -2%.
